# Where two headings read alike, the source gives them in different places.
# Key:
# [1] = molecular target: platelet activating factor (PAF) (Homo sapiens, UniProt P25105); settings: known related thienotriazolodiazepine; cited from earlier work
# [2] = system: apo A1 secretion in human hepatocytes; test: Apo A1 secretion by human hepatocytes (ELISA of supernatant, normalised to cell protein); assay type: cell-based; settings: for Apo A1 (ng secreted per mg cell protein), 1st / Apo A1 (ng secreted per mg cell protein), 2nd / Apo A1 (ng secreted per mg cell protein), mean: 3x24 h; for Apo A1 (ng secreted per mg cell protein), 1st: 1st parallel measurement; for Apo A1 (ng secreted per mg cell protein), 2nd: 2nd parallel measurement; for Apo A1 (ng secreted per mg cell protein), mean: mean of two measurements; for Stimulation of apo A1 secretion versus control level (in words): at concentrations as low as 3 μM, human hepatocytes
# Procedure: Human hepatocytes were isolated from pieces of livers, obtained from donors which could not be used for transplantation, following the procedure described in U.S. Pat. No. 6,444,664. The cells were seeded on culture dishes at a density of 1.5×10^5 viable cells per cm^2 and were maintained for the first 24 h in 1.5 mL per 10 cm^2 of Williams E medium supplemented with 10% heat inactivated fetal calf serum (FCS), 2 mmol/L L-glutamine, 20 mU/mL insulin (135 nmol/L), 50 nmol/L dexamethasone, 100 U/mL penicillin, 100 μg/mL streptomycin and 100 μg/mL kanamycin at 37° C. in a 5% CO2/95% air atmosphere. After 14-16 h the non-adherent cells were washed from the plates, using the same culture medium as described above. 24 h after seeding, the incubations with the compounds were started in 1 mL of the same culture medium, but with an insulin concentration of 10 nmol/L instead of 135 nmol/L.
# The human hepatocytes were treated with compounds 5, 6 and 7 (dissolved in DMSO, with the final concentration of DMSO not exceeding 0.1% v/v) at concentrations of 100 μM, 30 μM, 10 μM and 3 μM and incubated for 24 hours. The DMSO concentration in all samples and controls was 0.1%. The control wells contained DMSO (0.1% v/v) alone. The medium on the cells was removed and replaced with fresh medium with fresh compound and incubated for 24 hours. The medium was then again removed and replaced with fresh medium with fresh compound and incubated for another 24 hours. The supernatant was then removed from the cells and levels of apo A1 were determined using a commercially available ELISA (AlerCHEK™) with a HRP conjugated goat anti-apo A1 antibody and TMB/peroxidase substrate colour developer. Supernatants were diluted 1:4 with the wash buffer provided in the kit.
# After the last incubation the cells were washed twice with PBS, and BCA (bicinchoninic acid) reagent was added to each well to assay total cellular protein according to standard methods.
# [3] = system: central benzodiazepine receptor (BZD); test: Binding to central benzodiazepine receptor, [3H]flunitrazepam displacement on rat cerebral cortex membranes; settings: for % of control specific binding, 1st / % of control specific binding, 2nd / % of control specific binding, mean / IC50: 0.4 nM [3H]flunitrazepam
# Procedure: Affinity of the compounds of the invention to the central benzodiazepine receptor (BZD) was measured by determining the binding of 0.4 nM [^3H]flunitrazepam to rat cerebral cortex membranes, and its displacement by compounds of the invention as compared to the reference ligand diazepam, at 4° C. for 60 min, as described by R. C. Speth et al., Life Sci. 24:351-358 (1979).
# The specific binding to the receptors is defined as the difference between the total binding and the non-specific binding determined in the presence of an excess of unlabeled ligand (diazepam). The results are expressed as a percent of control specific binding ((measured specific binding/control specific binding)×100) obtained in the presence of compound 5, 6 and 7.
# In each experiment, the respective reference compound was tested concurrently with compound 5, 6 and 7 in order to assess the assay suitability. It was tested at several concentrations (for IC50 value determination).
# [4] = system: plasma apolipoprotein A1 (apo A1); settings: as described in U.S. Pat. No. 5,854,238; cited from earlier work
# Sequence of platelet activating factor (PAF) (P25105 whole entry): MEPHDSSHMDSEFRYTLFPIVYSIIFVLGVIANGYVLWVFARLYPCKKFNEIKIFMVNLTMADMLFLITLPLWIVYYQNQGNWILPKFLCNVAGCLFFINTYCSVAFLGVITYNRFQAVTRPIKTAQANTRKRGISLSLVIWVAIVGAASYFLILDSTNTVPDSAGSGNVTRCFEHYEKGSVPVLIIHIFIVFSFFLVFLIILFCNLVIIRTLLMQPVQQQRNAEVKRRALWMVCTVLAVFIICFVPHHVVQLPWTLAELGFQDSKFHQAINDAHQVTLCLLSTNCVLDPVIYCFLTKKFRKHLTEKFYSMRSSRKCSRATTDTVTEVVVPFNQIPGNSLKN
SMILES,"Apo A1 (ng secreted per mg cell protein), 1st ([2]; 3 μM)","Apo A1 (ng secreted per mg cell protein), 2nd ([2]; 3 μM)","Apo A1 (ng secreted per mg cell protein), mean ([2]; 3 μM)","Apo A1 (ng secreted per mg cell protein), 1st ([2]; 10 μM)","Apo A1 (ng secreted per mg cell protein), 2nd ([2]; 10 μM)","Apo A1 (ng secreted per mg cell protein), mean ([2]; 10 μM)","Apo A1 (ng secreted per mg cell protein), 1st ([2]; 30 μM)","Apo A1 (ng secreted per mg cell protein), 2nd ([2]; 30 μM)","Apo A1 (ng secreted per mg cell protein), mean ([2]; 30 μM)","Apo A1 (ng secreted per mg cell protein), 1st ([2]; 100 μM)","Apo A1 (ng secreted per mg cell protein), 2nd ([2]; 100 μM)","Apo A1 (ng secreted per mg cell protein), mean ([2]; 100 μM)",Stimulation of apo A1 secretion versus control level (in words) [2],Affinity to the benzodiazepine receptor (in words) [3],"% of control specific binding, 1st ([3]; 10^−6 M)","% of control specific binding, 2nd ([3]; 10^−6 M)","% of control specific binding, mean ([3]; 10^−6 M)","% of control specific binding, 1st ([3]; 10^−7 M)","% of control specific binding, 2nd ([3]; 10^−7 M)","% of control specific binding, mean ([3]; 10^−7 M)",also measured
Cc1nnc2n1-c1sc(CCC(=O)N3CCOCC3)cc1C(c1ccccc1Cl)=NC2 [WEB2086],,,,,,,,,,,,,,,,,,,,,PAF antagonistic activity (in words) [1]: platelet activating factor (PAF) antagonistic activity
"Cc1nnc2n1-c1sccc1C(c1ccccc1)=NC2(C)C [compound 5, 6,6-Dimethyl-4-phenyl-9-methyl-6H-thieno[3,2f]-s-triazolo[4,3-a][1,4]diazepine]",247 ng secreted per mg cell protein,124 ng secreted per mg cell protein,185 ng secreted per mg cell protein,274 ng secreted per mg cell protein,156 ng secreted per mg cell protein,215 ng secreted per mg cell protein,219 ng secreted per mg cell protein,227 ng secreted per mg cell protein,223 ng secreted per mg cell protein,273 ng secreted per mg cell protein,277 ng secreted per mg cell protein,275 ng secreted per mg cell protein,stimulated secetion of apo A1 above the control level,no significant affinity,90.0 % of control specific binding,100.4 % of control specific binding,95.2 % of control specific binding,91.5 % of control specific binding,96.7 % of control specific binding,94.1 % of control specific binding,"% of control specific binding, 1st ([3]; 10^−8 M): 102.0 % of control specific binding; % of control specific binding, 2nd ([3]; 10^−8 M): 94.3 % of control specific binding; % of control specific binding, mean ([3]; 10^−8 M): 98.2 % of control specific binding; % of control specific binding, 1st ([3]; 10^−9 M): 88.9 % of control specific binding; % of control specific binding, 2nd ([3]; 10^−9 M): 104.6 % of control specific binding; % of control specific binding, mean ([3]; 10^−9 M): 96.8 % of control specific binding"
"Cc1nnc2n1-c1sccc1C(c1ccc3c(c1)OCO3)=NC2 [compound 6, 4-(3′,4′-Methylenedioxyphenyl)-9-methyl-6H-thieno[3,2-f]-s-triazolo[4,3-a][1,4]diazepine]",144 ng secreted per mg cell protein,160 ng secreted per mg cell protein,152 ng secreted per mg cell protein,186 ng secreted per mg cell protein,212 ng secreted per mg cell protein,199 ng secreted per mg cell protein,290 ng secreted per mg cell protein,293 ng secreted per mg cell protein,292 ng secreted per mg cell protein,397 ng secreted per mg cell protein,276 ng secreted per mg cell protein,336 ng secreted per mg cell protein,stimulated secetion of apo A1 above the control level,no significant affinity,88.7 % of control specific binding,100.5 % of control specific binding,94.6 % of control specific binding,104.1 % of control specific binding,101.3 % of control specific binding,102.7 % of control specific binding,"% of control specific binding, 1st ([3]; 10^−8 M): 92.7 % of control specific binding; % of control specific binding, 2nd ([3]; 10^−8 M): 91.0 % of control specific binding; % of control specific binding, mean ([3]; 10^−8 M): 91.9 % of control specific binding; % of control specific binding, 1st ([3]; 10^−9 M): 110.1 % of control specific binding; % of control specific binding, 2nd ([3]; 10^−9 M): 83.2 % of control specific binding; % of control specific binding, mean ([3]; 10^−9 M): 96.7 % of control specific binding"
"Cc1nnc2n1-c1sccc1C(c1ccccc1)=NC2 [compound 7, 9-Methyl-4-phenyl-6H-thieno[3,2-f]-s-triazolo[4,3-a][1,4]diazepine, reference compound]",91 ng secreted per mg cell protein,91 ng secreted per mg cell protein,91 ng secreted per mg cell protein,266 ng secreted per mg cell protein,191 ng secreted per mg cell protein,229 ng secreted per mg cell protein,236 ng secreted per mg cell protein,374 ng secreted per mg cell protein,305 ng secreted per mg cell protein,254 ng secreted per mg cell protein,364 ng secreted per mg cell protein,309 ng secreted per mg cell protein,clearly less active,moderate affinity,18.9 % of control specific binding,17.9 % of control specific binding,18.4 % of control specific binding,73.5 % of control specific binding,68.0 % of control specific binding,70.7 % of control specific binding,"IC50 ([3]; rat cerebral cortex membranes, read-out: IC50 of displacing the labelled ligand): ~500 nM; % of control specific binding, 1st ([3]; 10^−5 M): 2.3 % of control specific binding; % of control specific binding, 2nd ([3]; 10^−5 M): 1.8 % of control specific binding; % of control specific binding, mean ([3]; 10^−5 M): 2.1 % of control specific binding; % of control specific binding, 1st ([3]; 10^−8 M): 89.0 % of control specific binding; % of control specific binding, 2nd ([3]; 10^−8 M): 104.1 % of control specific binding; % of control specific binding, mean ([3]; 10^−8 M): 96.5 % of control specific binding; Activity in increasing plasma apo A1 (in words) [4]: active in increasing plasma apolipoprotein A1"
"CN1C(=O)CN=C(c2ccccc2)c2cc(Cl)ccc21 [diazepam, reference compound]",,,,,,,,,,,,,,,,,,,,,"IC50 ([3]; 4° C., 60 min, read-out: IC50 of reference ligand in BZD binding assay): 16 nM"

# From US8569288B2, “Thienotriazolodiazepine derivatives active on apo A” (CircoMed LLC, priority 2008, dated 2013)
